Experimental data: ChEMBL document CHEMBL5465560, “Selectivity Literature for EUbOPEN Chemogenomic Library” (2024)
Values belong to the compound of their own block, whether it stands above or below them.

Key:
[1] = target: Tyrosine-protein kinase CSK (Homo sapiens) (UniProt P41240); assay: Selectivity interaction (ActivX KiNativ screen (kinase selectivity in THP-1 cell lysates)) EUB0000639a CSK; format: subcellular; settings: lysate, at 5 µM
[2] = target: STE20-like serine/threonine-protein kinase (Homo sapiens, UniProt Q9H2G2); assay: Selectivity interaction (ActivX KiNativ screen (kinase selectivity in THP-1 cell lysates)) EUB0000639a SLK; format: subcellular; settings: lysate, at 0.04 µM
STE20-like serine/threonine-protein kinase, sequence (Q9H2G2 whole entry, looked up): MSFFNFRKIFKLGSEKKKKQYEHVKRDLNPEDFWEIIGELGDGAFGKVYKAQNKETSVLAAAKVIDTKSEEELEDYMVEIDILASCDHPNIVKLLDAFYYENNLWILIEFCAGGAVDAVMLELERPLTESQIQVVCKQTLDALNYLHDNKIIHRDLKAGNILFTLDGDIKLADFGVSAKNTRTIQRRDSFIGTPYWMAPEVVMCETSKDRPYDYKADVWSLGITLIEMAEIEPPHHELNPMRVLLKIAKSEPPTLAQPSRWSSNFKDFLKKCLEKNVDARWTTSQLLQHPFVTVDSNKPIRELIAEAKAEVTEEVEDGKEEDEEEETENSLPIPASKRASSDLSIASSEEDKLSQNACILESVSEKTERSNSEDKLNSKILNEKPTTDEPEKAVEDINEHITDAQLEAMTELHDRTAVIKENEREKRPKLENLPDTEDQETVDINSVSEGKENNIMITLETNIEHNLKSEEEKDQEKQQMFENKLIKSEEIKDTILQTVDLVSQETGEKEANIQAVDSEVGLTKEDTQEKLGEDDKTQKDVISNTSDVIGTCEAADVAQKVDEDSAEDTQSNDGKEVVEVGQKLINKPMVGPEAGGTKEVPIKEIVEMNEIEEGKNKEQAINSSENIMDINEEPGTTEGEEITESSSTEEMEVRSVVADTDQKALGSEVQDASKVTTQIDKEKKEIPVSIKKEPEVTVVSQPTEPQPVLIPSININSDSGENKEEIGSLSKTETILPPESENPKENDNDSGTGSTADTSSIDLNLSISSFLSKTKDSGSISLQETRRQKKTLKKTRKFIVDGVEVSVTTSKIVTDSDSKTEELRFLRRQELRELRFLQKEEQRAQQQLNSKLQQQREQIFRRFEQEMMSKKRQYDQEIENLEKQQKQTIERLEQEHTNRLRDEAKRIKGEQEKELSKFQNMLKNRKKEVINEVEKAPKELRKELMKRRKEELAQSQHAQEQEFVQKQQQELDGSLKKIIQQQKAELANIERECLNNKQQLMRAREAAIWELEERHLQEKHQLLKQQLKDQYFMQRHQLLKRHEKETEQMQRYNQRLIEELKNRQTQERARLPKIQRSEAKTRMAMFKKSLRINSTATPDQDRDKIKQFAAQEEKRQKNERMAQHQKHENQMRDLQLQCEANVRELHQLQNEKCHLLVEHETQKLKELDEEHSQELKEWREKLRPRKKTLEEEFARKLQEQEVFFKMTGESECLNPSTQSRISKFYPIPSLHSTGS

[3] = target: Calcium/calmodulin-dependent protein kinase type II subunit beta (Homo sapiens) (UniProt Q13554); assay: Selectivity interaction (ActivX KiNativ screen (kinase selectivity in THP-1 cell lysates)) EUB0000639a CAMK2B; format: subcellular; settings: lysate, at 0.04 µM
Calcium/calmodulin-dependent protein kinase type II subunit beta (Homo sapiens), sequence (Q13554 whole entry): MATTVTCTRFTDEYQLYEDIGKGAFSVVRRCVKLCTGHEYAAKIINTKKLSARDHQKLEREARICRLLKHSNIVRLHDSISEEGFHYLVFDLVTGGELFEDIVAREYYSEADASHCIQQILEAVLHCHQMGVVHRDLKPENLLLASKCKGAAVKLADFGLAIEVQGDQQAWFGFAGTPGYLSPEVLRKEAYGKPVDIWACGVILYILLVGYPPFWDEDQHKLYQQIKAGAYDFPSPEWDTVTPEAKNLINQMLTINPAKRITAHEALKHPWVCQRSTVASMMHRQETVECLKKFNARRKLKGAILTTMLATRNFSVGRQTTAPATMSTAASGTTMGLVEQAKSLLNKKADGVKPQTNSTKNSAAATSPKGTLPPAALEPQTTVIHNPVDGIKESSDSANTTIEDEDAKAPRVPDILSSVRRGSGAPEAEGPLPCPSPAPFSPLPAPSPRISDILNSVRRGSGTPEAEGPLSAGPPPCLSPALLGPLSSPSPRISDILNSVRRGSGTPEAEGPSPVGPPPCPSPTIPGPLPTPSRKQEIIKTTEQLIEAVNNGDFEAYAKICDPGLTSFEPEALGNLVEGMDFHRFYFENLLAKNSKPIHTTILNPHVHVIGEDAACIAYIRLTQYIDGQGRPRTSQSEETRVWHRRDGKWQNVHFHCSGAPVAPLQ

[4] = target: T1, Serine/threonine-protein kinase Chk1 (Homo sapiens) (UniProt O14757); assay: Selectivity interaction (Millipore kinase profiler) EUB0000124b CHEK1; settings: at 10 µM
T1 sequence (whole entry): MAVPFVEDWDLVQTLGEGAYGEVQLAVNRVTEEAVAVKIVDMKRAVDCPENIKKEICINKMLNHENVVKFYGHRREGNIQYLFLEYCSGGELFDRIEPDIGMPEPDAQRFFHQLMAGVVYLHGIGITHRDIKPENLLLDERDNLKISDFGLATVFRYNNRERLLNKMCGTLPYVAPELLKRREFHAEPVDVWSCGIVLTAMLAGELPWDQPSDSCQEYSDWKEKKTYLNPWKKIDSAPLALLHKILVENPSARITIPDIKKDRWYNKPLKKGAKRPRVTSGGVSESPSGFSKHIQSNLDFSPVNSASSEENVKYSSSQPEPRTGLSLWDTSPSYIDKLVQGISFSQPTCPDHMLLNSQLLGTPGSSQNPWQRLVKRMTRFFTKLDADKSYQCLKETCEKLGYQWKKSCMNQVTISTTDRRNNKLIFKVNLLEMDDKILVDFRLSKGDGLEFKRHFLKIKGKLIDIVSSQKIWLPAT

[5] = target: Tyrosine-protein kinase BTK (Homo sapiens, UniProt Q06187); assay: Selectivity interaction (Ambit KINOMEscan and KiNATiv profiling in Jurkat cells) EUB0000090b BTK; format: cell-based; settings: at 1 µM
Tyrosine-protein kinase BTK, sequence (Q06187 whole entry): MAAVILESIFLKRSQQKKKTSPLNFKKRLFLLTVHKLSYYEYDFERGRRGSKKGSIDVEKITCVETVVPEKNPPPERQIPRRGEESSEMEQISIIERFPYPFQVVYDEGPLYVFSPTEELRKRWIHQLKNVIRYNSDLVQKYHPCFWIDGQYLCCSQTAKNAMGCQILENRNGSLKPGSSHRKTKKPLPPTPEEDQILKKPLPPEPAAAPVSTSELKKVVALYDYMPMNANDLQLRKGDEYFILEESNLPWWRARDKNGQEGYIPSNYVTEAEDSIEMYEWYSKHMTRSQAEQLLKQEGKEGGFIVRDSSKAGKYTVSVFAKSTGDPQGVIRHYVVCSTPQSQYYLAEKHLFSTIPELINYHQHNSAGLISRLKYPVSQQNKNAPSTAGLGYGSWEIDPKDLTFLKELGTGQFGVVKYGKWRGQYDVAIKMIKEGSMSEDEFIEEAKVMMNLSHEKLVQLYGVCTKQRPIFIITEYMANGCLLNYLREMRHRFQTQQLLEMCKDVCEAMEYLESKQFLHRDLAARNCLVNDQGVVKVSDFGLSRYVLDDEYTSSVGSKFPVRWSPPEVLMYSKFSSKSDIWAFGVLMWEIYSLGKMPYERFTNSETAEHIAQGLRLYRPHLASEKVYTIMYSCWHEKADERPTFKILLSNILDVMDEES

[6] = target: T2, Serine/threonine-protein kinase haspin (Homo sapiens) (UniProt Q8TF76); assay: Selectivity interaction (Kinase panel (DSF assay)) EUB0001558a GSG2
T2 sequence (whole entry): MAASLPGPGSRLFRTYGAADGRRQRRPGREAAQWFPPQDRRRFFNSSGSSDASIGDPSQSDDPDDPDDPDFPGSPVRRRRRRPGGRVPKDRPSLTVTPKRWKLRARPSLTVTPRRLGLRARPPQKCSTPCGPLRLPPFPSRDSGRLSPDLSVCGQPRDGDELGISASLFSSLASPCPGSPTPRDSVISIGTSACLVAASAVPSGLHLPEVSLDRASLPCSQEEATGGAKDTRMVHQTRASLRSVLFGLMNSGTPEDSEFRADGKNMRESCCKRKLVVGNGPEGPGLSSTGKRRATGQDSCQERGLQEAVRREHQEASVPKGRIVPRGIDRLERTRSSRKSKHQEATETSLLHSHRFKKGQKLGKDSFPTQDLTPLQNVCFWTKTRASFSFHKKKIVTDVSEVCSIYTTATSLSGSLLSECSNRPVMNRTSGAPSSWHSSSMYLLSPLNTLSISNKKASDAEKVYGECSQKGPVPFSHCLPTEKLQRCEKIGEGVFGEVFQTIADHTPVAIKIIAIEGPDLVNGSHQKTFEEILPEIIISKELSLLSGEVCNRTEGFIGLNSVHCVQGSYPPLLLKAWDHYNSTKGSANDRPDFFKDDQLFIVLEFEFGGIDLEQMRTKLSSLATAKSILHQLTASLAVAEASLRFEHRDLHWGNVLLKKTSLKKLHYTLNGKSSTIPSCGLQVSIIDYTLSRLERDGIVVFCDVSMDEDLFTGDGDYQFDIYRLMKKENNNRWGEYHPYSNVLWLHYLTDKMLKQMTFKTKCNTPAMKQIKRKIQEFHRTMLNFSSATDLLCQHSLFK

[7] = target: Ribosomal protein S6 kinase beta-1 (Homo sapiens, UniProt P23443); assay: Selectivity interaction (KinomeScan (DiscoverX)) EUB0000045b RPS6KB1
Ribosomal protein S6 kinase beta-1, sequence (P23443 whole entry, looked up): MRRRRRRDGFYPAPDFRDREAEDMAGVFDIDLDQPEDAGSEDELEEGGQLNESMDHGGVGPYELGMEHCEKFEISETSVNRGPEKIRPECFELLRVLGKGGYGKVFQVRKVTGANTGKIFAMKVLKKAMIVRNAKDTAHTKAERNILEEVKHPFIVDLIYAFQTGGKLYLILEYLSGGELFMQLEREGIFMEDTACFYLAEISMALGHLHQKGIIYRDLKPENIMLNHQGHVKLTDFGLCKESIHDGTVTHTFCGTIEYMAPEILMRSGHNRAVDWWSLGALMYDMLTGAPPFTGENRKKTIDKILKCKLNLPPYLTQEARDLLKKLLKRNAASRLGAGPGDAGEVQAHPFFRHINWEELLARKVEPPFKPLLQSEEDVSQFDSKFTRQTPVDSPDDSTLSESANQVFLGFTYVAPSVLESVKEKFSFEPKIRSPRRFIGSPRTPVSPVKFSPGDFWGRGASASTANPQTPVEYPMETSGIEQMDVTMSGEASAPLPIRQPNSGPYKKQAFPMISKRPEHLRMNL

[8] = target: Phosphatidylinositol 4-phosphate 5-kinase type-1 alpha (Homo sapiens) (UniProt Q99755); settings: at 10 µM
Phosphatidylinositol 4-phosphate 5-kinase type-1 alpha (Homo sapiens), sequence (Q99755 whole entry): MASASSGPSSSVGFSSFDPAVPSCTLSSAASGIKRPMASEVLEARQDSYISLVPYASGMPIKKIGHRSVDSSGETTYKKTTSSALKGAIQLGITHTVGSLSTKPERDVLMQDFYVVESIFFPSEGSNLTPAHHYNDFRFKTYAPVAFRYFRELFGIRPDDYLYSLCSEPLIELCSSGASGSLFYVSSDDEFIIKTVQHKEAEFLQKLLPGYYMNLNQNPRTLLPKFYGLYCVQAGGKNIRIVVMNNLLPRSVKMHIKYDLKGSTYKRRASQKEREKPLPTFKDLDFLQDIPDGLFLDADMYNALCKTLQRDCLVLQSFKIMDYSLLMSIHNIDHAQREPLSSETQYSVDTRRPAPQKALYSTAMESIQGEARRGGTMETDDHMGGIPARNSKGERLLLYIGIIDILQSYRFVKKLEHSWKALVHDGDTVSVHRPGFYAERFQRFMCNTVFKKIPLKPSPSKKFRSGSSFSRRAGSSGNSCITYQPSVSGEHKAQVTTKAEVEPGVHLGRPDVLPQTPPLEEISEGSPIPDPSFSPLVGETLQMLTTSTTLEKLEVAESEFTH

[9] = target: T3, Activin receptor type-1B (Homo sapiens) (UniProt P36896); assay: Selectivity interaction (KinomeScan (DiscoverX)) EUB0000618a ACVR1B; settings: at 10 µM
T3 sequence (whole entry): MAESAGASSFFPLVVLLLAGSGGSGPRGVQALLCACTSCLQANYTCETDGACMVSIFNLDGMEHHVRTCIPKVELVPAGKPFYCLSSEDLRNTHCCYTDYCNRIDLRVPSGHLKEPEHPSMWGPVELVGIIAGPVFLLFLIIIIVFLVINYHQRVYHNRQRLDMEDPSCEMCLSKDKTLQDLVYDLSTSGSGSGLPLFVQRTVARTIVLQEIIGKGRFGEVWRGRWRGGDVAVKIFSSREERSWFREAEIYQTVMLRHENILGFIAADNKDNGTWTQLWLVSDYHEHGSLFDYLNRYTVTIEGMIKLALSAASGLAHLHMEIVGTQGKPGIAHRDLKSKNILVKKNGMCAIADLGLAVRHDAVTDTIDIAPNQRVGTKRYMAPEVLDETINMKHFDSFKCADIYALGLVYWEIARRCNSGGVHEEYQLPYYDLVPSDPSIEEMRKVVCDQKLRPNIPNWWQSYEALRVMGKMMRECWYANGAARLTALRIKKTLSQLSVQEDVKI

[10] = target: Serine/threonine-protein kinase PLK3 (Homo sapiens, UniProt Q9H4B4); assay: Selectivity interaction (KinomeScan (DiscoverX)) EUB0000618a PLK3; settings: at 10 µM
Serine/threonine-protein kinase PLK3, sequence (Q9H4B4 whole entry, looked up): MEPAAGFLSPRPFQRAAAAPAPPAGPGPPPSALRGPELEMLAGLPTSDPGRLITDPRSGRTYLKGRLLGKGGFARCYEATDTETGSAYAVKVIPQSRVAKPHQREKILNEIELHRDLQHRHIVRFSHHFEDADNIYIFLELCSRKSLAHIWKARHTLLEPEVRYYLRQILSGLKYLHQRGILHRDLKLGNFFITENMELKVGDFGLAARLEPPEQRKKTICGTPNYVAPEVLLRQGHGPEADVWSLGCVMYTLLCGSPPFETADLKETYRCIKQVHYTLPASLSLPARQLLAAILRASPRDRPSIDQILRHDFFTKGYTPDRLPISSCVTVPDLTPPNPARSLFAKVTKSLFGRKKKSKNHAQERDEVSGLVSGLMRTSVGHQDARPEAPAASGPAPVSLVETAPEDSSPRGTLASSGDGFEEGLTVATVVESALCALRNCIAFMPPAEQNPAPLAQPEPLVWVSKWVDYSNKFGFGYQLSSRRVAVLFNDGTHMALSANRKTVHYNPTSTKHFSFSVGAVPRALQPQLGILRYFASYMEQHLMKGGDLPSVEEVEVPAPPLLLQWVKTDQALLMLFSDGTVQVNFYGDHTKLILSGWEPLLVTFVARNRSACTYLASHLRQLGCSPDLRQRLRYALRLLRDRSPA

Tyrosine-protein kinase CSK (Homo sapiens), sequence (P41240 2-450 limits assumed): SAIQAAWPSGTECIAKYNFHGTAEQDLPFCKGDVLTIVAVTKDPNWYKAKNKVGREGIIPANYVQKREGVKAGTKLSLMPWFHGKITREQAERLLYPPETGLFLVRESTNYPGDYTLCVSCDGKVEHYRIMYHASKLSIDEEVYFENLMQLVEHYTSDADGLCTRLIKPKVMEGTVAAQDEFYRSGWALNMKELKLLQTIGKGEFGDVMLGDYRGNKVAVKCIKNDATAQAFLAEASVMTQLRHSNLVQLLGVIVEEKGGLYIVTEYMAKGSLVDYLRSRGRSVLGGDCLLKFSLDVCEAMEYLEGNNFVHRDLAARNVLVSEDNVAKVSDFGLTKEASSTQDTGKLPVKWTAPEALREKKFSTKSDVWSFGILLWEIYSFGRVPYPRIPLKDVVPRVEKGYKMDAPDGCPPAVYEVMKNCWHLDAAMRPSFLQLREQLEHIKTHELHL

% of inhibition [1]: -2.6% | % of inhibition [2]: -0.4% | % of inhibition [3]: 12.8%
SMILES: CC[C@@H]1[C@H](F)C(=O)N[C@@H]1COc1nccc2cc(C(N)=O)c(OC)cc12 [ZIMLOVISERTIB]

% of control [4]: 113%
SMILES: CC(=O)Nc1cccc(-n2c(=O)n(C3CC3)c(=O)c3c(Nc4ccc(I)cc4F)n(C)c(=O)c(C)c32)c1

SMILES: CN(C)C/C=C/C(=O)Nc1ccc(C(=O)N2CCCC(Nc3ncc(Cl)c(-c4c[nH]c5ccccc45)n3)C2)cc1 (stereo unspecified)
% of control [5]: 90%

SMILES: CC(C)(O)[C@H](F)CN1Cc2cc(NC(=O)c3cnn4cccnc34)c(N3CCOCC3)cc2C1=O
dTM [6]: 0.8 K

SMILES: C=CC(=O)Nc1cc(-n2c(=O)ccc3cnc4ccc(-c5ccc(NS(C)(=O)=O)cc5)cc4c32)ccc1C
% of control ([7]; at 1 µM): 100% | % of control ([7]; at 10 µM): 76%

SMILES: Cc1cc([C@@H](C)Nc2ccccc2C(=O)O)c2nc(N3CCOCC3)cc(=O)n2c1 [AZD-6482]
% of control [8]: 100%

SMILES: O[C@H]1CC[C@H](Nc2ncc3nc(Nc4c(F)cc(F)cc4F)n([C@H]4CCOC4)c3n2)CC1
% of control [9]: 99% | % of control [10]: 100%
